These results are taken from BindingDB's records for doi:10.3109/14756366.2010.518965 (Guangzhou Institutes of Biomedicine and Health, Chinese …, 2011).

Where a name gives a salt, the structure may show the parent alone. Where only a bound is given, the exact number is not on record here.

What all share (experiment): UDP-glucuronosyltransferase Activity Assay
Experiment [1] concerns the target T1, UDP-glucuronosyltransferase 1A1 (Homo sapiens, UniProt P22309).
T1 sequence (P22309 whole entry): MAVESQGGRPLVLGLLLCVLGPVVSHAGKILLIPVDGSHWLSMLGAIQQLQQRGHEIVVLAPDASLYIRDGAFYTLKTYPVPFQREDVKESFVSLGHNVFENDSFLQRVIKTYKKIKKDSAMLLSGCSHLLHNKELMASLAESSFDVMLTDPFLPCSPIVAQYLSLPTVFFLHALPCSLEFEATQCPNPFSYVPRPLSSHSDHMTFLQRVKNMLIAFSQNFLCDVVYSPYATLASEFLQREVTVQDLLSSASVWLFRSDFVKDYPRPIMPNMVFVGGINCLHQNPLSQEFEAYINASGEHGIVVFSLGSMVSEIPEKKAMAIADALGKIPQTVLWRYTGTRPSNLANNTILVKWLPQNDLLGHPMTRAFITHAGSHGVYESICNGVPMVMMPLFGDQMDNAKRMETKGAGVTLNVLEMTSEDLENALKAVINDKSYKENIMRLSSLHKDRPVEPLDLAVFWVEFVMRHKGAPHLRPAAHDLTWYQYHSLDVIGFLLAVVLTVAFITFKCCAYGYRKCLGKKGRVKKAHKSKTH

Experiment [2] has as its target T2, UDP-glucuronosyltransferase 1A4 (Homo sapiens, UniProt P22310).
T2 sequence (P22310 whole entry): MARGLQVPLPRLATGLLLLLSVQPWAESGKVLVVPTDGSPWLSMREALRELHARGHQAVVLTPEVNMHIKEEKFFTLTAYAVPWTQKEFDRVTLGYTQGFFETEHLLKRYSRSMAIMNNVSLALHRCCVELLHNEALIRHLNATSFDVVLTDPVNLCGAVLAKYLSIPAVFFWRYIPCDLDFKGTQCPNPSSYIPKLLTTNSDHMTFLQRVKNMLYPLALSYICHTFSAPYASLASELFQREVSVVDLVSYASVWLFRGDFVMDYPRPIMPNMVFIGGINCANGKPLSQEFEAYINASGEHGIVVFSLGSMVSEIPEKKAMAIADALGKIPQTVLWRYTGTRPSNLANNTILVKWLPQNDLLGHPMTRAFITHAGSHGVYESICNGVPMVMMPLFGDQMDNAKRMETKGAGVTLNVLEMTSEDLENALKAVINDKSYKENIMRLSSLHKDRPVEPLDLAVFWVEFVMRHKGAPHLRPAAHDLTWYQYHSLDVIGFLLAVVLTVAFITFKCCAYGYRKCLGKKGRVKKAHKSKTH

The target in experiment [3] is T3, UDP-glucuronosyltransferase 2B7 (Homo sapiens, UniProt P16662).
T3 sequence (P16662 whole entry): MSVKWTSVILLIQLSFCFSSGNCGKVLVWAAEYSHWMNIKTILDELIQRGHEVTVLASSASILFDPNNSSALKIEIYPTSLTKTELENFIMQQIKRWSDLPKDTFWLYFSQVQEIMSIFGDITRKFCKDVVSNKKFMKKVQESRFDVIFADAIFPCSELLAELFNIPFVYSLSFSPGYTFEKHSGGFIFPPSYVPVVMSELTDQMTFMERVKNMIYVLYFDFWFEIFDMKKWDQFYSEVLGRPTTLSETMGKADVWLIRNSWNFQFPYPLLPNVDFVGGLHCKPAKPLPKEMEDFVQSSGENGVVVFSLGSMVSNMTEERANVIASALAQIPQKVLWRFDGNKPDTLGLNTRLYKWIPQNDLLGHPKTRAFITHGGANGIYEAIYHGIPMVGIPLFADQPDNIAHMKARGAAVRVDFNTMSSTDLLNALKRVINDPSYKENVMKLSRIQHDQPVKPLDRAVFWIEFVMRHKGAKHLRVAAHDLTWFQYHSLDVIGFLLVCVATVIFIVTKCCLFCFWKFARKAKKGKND

In experiment [4] the target is T4, UDP-glucuronosyltransferase 2B10 (Homo sapiens, UniProt P36537).
T4 sequence (P36537 whole entry): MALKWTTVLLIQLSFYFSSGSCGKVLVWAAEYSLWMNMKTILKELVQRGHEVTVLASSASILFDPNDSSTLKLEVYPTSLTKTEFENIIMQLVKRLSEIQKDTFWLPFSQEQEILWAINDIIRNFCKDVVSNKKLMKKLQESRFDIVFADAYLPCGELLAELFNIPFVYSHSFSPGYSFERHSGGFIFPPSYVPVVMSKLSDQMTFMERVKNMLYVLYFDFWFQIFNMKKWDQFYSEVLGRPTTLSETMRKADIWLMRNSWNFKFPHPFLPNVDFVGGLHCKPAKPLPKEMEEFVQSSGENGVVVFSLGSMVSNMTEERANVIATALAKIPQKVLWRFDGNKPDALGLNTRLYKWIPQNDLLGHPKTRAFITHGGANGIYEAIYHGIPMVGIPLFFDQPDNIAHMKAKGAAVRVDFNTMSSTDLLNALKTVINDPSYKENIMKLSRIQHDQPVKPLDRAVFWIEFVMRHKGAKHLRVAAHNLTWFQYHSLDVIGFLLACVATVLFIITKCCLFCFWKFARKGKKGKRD

Experiment [5] deals with T5, UDP-glucuronosyltransferase 1-6 (Homo sapiens, UniProt P19224).
T5 sequence (P19224 whole entry): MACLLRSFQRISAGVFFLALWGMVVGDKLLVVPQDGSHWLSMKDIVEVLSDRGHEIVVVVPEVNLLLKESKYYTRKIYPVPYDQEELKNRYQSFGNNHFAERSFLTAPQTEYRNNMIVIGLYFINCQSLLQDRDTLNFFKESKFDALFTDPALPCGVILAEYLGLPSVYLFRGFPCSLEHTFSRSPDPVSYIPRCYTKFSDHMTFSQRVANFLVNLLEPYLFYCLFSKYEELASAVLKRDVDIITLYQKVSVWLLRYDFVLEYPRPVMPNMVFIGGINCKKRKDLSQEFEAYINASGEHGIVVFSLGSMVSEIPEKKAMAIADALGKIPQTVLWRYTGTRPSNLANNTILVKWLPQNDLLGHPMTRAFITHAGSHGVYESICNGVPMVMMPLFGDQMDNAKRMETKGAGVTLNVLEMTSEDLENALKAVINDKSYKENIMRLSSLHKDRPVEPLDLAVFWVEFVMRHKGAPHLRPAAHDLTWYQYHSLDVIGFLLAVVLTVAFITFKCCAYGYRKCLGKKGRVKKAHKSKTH

Turning to `C=C[C@H]1C[N@@]2CC[C@H]1C[C@@H]2[C@@H](O)c1ccnc2ccc(OC)cc12` [(6-Methoxy-quinolin-4-yl)-(5-vinyl-1-aza-bicyclo[2.2.2]oct-2-yl)-methanol], the IC50 was > 300 µM in experiment [1]; 166 µM in experiment [2]; > 300 µM in experiment [3]; > 300 µM in experiment [4]; > 300 µM in experiment [5].

As for `CO[C@H]1C[C@H](O[C@H]2[C@H](C)[C@@H](O[C@@H]3O[C@H](C)C[C@H](N(C)C)[C@H]3O)[C@@H](C)C[C@@]3(CO3)C(=O)[C@H](C)[C@@H](O)[C@@H](C)[C@@H](C)OC(=O)[C@@H]2C)O[C@@H](C)[C@@H]1O` [Oleandomycin], the 50% inhibitory concentration (IC50) in experiment [1] was 44 µM; in experiment [2] it was 59 µM; in experiment [3], 272 µM; in experiment [4], > 300 µM; in experiment [5], > 300 µM.

As for `COc1ccc2c(c1)[C@@]13CCCC[C@@H]1[C@@H](C2)N(C)CC3` [Dextromethorphan], the IC50 in experiment [1] was > 300 µM; in experiment [2], 89 µM; in experiment [3] it was > 300 µM; in experiment [4], 62 µM; in experiment [5], > 300 µM.

Consider `O=C(O)Cc1ccccc1Nc1c(Cl)cccc1Cl` [{2-[(2,6-dichlorophenyl)amino]phenyl}acetic acid], for which the IC50 in experiment [1] amounted to 155 µM; in experiment [2], 192 µM.

Take `O=c1ccc2ccccc2o1` [2H-chromen-2-one]: the half-inhibitory concentration (IC50) in experiment [1], in experiment [2], in experiment [3], in experiment [4] and in experiment [5] was > 300 µM each time.

`CC(NC(C)(C)C)C(=O)c1cccc(Cl)c1` (stereo not given) [BUPROPION HYDROCHLORIDE]: the IC50 in experiment [1] is > 300 µM; in experiment [2] it was 152 µM; in experiment [3], > 300 µM; in experiment [4], 88 µM; in experiment [5], > 300 µM.

In the case of `Cc1ncc2n1-c1ccc(Cl)cc1C(c1ccccc1F)=NC2` [12-chloro-9-(2-fluorophenyl)-3-methyl-2,4,8-triazatricyclo[8.4.0.0^{2,6}]tetradeca-1(10),3,5,8,11,13-hexaene], the IC50 in experiment [1] came out at 26 µM; in experiment [3] it was 147 µM; in experiment [4], 106 µM; in experiment [5] it was 23 µM.

Turning to `COc1ccc2[nH]c([S+]([O-])Cc3ncc(C)c(OC)c3C)nc2c1` (stereo not given) [H-168/68], the IC50 in experiment [1] was 56 µM; in experiment [2] it was > 300 µM; in experiment [3], > 300 µM; in experiment [4], > 300 µM; in experiment [5], 185 µM.

Regarding `CC(=O)N1CCN(c2ccc(OC[C@@H]3CO[C@@](Cn4ccnc4)(c4ccc(Cl)cc4Cl)O3)cc2)CC1` [Nizoral], the IC50 in experiment [1] worked out at 4.1 µM; in experiment [2] it was 58 µM; in experiment [3] it was 60 µM; in experiment [4] it was 22 µM; in experiment [5], 19 µM.

As for `Cc1nc2c([nH]1)c(=O)n(C)c(=O)n2Cc1ccco1` [furafylline], the IC50 in experiment [1], in experiment [2], in experiment [3], in experiment [4] and in experiment [5] was > 300 µM each time.

Take `CC[C@@]1(c2ccccc2)NC(=O)N(C)C1=O` [(5S)-5-Ethyl-3-methyl-5-phenyl-2,4-imidazolidinedione]: the IC50 in experiment [1], in experiment [2], in experiment [3], in experiment [4] and in experiment [5] was > 300 µM each time.

With `CC(=O)O[C@H]1C(=O)[C@@]2(C)[C@H]([C@H](OC(=O)c3ccccc3)[C@]3(O)C[C@H](OC(=O)[C@H](O)[C@@H](NC(=O)c4ccccc4)c4ccccc4)C(C)=C1C3(C)C)[C@]1(OC(C)=O)CO[C@@H]1C[C@@H]2O`, the IC50 in experiment [1] was 20 µM; in experiment [2] it was 4.9 µM; in experiment [3], > 300 µM; in experiment [4], > 300 µM; in experiment [5] it was 74 µM.

For `Cc1ncsc1CCCl` [Chlormethiazole], the IC50 in experiment [1], in experiment [2], in experiment [3], in experiment [4] and in experiment [5] was > 300 µM in each case.

On to `O=c1cc(-c2ccccc2)oc2c1ccc1ccccc12`, for which the IC50 in experiment [1] is 38 µM; in experiment [2], 23 µM; in experiment [3], 149 µM; in experiment [4], > 300 µM; in experiment [5] it was 67 µM.

With `CCOc1ccc(NC(C)=O)cc1` [ACETPHENETIDIN], the IC50 in experiment [1], in experiment [2], in experiment [3], in experiment [4] and in experiment [5] was > 300 µM throughout.

For `Nc1ccc(S(=O)(=O)Nc2ccnn2-c2ccccc2)cc1`, the IC50 in experiment [1], in experiment [2], in experiment [3], in experiment [4] and in experiment [5] was > 300 µM in each case.

On to `CCCCNC(=O)NS(=O)(=O)c1ccc(C)cc1` [1-Butyl-3-(p-methylphenylsulfonyl)urea], for which the IC50 in experiment [1] was > 300 µM; in experiment [2] it was > 300 µM; in experiment [3] it was > 300 µM; in experiment [4], > 300 µM; in experiment [5], 281 µM.

As to `C[C@]12CC[C@H]3[C@@H](CCC4=CC(=O)CC[C@@]43C)[C@@H]1CC[C@@H]2O` [Testosterone, 1], the IC50 was 43 µM in experiment [1], 165 µM in experiment [3], > 300 µM in experiment [4] and > 300 µM in experiment [5].

The IC50 is the concentration at which inhibition is half-maximal. Low readings indicate inhibition by little substance, high ones a need for much substance.
